Measurements reported in patent publication US10550127B1, “Indanylaminoazadihydrobenzofuranylacetic acids, pharmaceutical compositions for the treatment of diabetes” (Boehringer Ingelheim International GmbH, priority 2017, dated 2020).
Converted amounts (≈) assume the structure as drawn.

Tests used:
human GPR40 receptor = human GPR40 receptor (Homo sapiens (Human), UniProt O14842); test: IP1 accumulation measurements using the IPOne assay system; assay type: cell-based; details: 1321N1 cells stably expressing human GPR40, 1 h stimulation
Description: IP1 accumulation measurements using the IPOne assay system—1321N1 cells stably expressing human GPR40 receptor (Euroscreen, Belgium) are seeded 24 h before the assay in white 384-well plates in culture medium containing 10% FCS, 1% Na-Pyruvate and 400 μg/mL G418. IP1 is assayed according to the manufacturer's description (Cisbio Bioassays, France). In brief, the assay is started by substitution of the culture medium by stimulation buffer (Hepes 10 mM, CaCl2) 1 mM, MgCl2 0.5 mM, KCl 4.2 mM, NaCl 146 mM, glucose 5.5 mM and LiCl 50 mM, pH 7.4). Cells are stimulated for 1 h at 37° C., 5% CO2 by addition of the compounds that are diluted in stimulation buffer containing LiCl. Assays are stopped by adding HTRF-conjugates (IP1-d2 and Anti-IP1 cryptate Tb) and lysis buffer, provided by the manufacturer. After an incubation time of 1 h at room temperature plates are measured using an EnVision™, Perkin Elmer. The obtained fluorescence ratios at 665/615 […] are then used to calculate the pEC50 values using Assay Explorer 3.3 Software (Accelrys, Inc.) by interpolation using an IP1 reference curve and subsequent sigmoidal curve fitting allowing for a variable hill slope.

[1] = biological target: cytochrome P450 2C9-isoenzyme (Homo sapiens (Human), UniProt P11712); test: Inhibition of CYP-2C9 (diclofenac hydroxylation, human liver microsomes); assay type: in vitro ADME; details: diclofenac 10 μM, 37° C.
Description: All assays are carried out on a robotic system in 96 well plates. The final incubation volume contains TRIS buffer (0.1 M), MgCl2 (5 mM), human liver microsomes (0.1 mg/mL), diclofenac (10 μM) and the test compound at five different concentrations or no compound (high control) in duplicate (e.g., highest concentration 10-50 μM with subsequent serial 1:4 dilutions). Following a short preincubation period, reactions are started with the cofactor (NADPH, 1 mM) and stopped by cooling the incubation down to 8° C. and subsequently by addition of one volume of acetonitrile. An internal standard solution—the stable isotope ^13C6-hydroxydiclofenac—is added after quenching of incubations. Peak area analyte (=metabolite formed) and internal standard is determined by LC-MS/MS. The resulting peak area ratio analyte to internal standard in these incubations is compared to a control activity containing no test compound. Within each of the assay runs, the IC50 of a positive control inhibitor (sulfaphenazole) is determined. Experimental IC50 values are calculated by least square regression according to the following equation: % control activity=(100% control activity/(1+(I/IC50)S))−B with I=inhibitor concentration; S=slope factor; B=background activity (lower plateau of the inhibition curve) […]

Aqueous solubility = assay type: physicochemical; details: aqueous buffer, kinetic from dmso stock, buffer pH 2.2, 24 h shaking, 2.5% DMSO
Description: The aqueous solubility of the compounds of the invention is determined by comparing the amount dissolved in buffer to the amount in an acetonitrile/water (1/1) solution. Starting from a 10 mM DMSO stock solution aliquots are diluted with acetonitrile/water (1/1) or buffer, respectively. After 24 h of shaking, the solutions are filtrated and analyzed by LC-UV. The amount dissolved in buffer is compared to the amount in the acetonitrile solution.
Solubility is usually being measured from 0.001 to 0.125 mg/mL at a DMSO concentration of 2.5%. If more than 90% of the compound is dissolved in buffer, the value is marked with “>”.

[2] = biological target: cytochrome P450 2C8-isoenzyme (Homo sapiens (Human), UniProt P10632); test: Inhibition of CYP-2C8 (amodiaquine deethylation, human liver microsomes); assay type: in vitro ADME; details: amodiaquine 1 μM, 37° C.
Description: All assays are carried out on a robotic system in 96 well plates. The final incubation volume contains TRIS buffer (0.1 M), MgCl2 (5 mM), human liver microsomes (0.05 mg/mL), amodiaquine (1 μM) and the test compound at five different concentrations or no compound (high control) in duplicate (e.g. highest concentration 10-50 μM with subsequent serial 1:4 dilutions). Following a short preincubation period, reactions are started with the cofactor (NADPH, 1 mM) and stopped by cooling the incubation down to 8° C. and subsequently by addition of one volume of acetonitrile. An internal standard solution—the stable isotope d5-desethylamodiaquine—is added after quenching of incubations. Peak area analyte (=metabolite formed) and internal standard is determined by LC-MS/MS. The resulting peak area ratio analyte to internal standard in these incubations is compared to a control activity containing no test compound. Within each of the assay runs, the IC50 of a positive control inhibitor (Montelukast) is determined. Experimental IC50 values are calculated by least square regression according to the following equation: % control activity=(100% control activity/(1+(I/IC50)S))−B with I=inhibitor concentration; S=slope factor; B=background activity (lower plateau of the inhibition curve)
If the inhibition of the reaction is already >50% at the lowest concentration of the test compound, the IC50 is assigned “<lowest concentration tested” (usually <0.4 μM). If the inhibition of the reaction is still <50% at the highest concentration of the test compound, the IC50 is assigned “> highest concentration tested” (usually >50 μM).

cytochrome P450 2C8-isoenzyme, sequence (P10632 whole entry): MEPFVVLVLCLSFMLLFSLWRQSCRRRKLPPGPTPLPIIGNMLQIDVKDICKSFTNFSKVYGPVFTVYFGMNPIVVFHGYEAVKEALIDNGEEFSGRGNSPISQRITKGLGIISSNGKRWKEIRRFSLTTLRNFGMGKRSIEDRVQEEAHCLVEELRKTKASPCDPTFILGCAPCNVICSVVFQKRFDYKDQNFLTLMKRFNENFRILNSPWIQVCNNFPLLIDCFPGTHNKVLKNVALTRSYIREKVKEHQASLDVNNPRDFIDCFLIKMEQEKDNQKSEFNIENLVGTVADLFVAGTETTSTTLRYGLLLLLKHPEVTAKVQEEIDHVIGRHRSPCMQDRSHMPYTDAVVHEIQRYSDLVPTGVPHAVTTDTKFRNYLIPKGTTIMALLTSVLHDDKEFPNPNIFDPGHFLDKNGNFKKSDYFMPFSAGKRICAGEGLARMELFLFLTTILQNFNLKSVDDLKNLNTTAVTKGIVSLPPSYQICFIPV
human GPR40 receptor, sequence (O14842 whole entry): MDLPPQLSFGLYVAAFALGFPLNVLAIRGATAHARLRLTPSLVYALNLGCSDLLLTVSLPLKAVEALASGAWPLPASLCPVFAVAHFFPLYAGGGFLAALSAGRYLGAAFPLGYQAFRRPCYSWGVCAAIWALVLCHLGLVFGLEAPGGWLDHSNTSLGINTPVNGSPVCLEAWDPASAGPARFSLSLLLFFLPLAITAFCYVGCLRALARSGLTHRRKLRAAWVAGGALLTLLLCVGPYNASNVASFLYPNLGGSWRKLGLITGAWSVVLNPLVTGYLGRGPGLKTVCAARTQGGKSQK
cytochrome P450 2C9-isoenzyme, sequence (P11712 whole entry): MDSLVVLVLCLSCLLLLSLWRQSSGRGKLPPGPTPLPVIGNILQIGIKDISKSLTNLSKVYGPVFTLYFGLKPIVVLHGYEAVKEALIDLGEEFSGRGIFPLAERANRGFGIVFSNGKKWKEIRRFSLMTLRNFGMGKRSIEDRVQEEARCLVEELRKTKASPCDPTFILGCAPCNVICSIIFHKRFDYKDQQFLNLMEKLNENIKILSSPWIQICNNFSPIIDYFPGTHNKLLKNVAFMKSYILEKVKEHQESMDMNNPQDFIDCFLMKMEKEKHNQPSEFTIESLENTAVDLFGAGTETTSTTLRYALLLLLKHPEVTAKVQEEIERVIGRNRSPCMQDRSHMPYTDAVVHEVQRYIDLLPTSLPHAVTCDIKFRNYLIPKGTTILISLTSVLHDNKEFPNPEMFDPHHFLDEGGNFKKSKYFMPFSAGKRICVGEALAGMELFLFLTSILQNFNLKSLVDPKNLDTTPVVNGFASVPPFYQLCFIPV

Cc1cc(OCCC(C)(C)O)cc(C)c1-c1ccc(F)c2c1CC[C@H]2Nc1cc2c(cn1)[C@H](CC(=O)O)CO2 [Example 1, ((S)-6-{(R)-7-Fluoro-4-[4-(3-hydroxy-3-methyl-butoxy)-2,6-dimethyl-phenyl]-indan-1-ylamino}-2,3-dihydro-furo[3,2-c]pyridin-3-yl)-acetic Acid]
EC50 (human GPR40 receptor): 0.015 µM
IC50 [1]: > 50 µM
solubility at 24 h (Aqueous solubility): > 94 µg/mL
IC50 [2]: 30 µM

Cc1cc(-c2nnn(C)n2)cc(C)c1-c1ccc(F)c2c1CC[C@H]2Nc1cc2c(cn1)[C@H](CC(=O)O)CO2 [Example 5, ((S)-6-{(R)-4-[2,6-Dimethyl-4-(2-methyl-2H-tetrazol-5-yl)-phenyl]-7-fluoro-indan-1-ylamino}-2,3-dihydro-furo[3,2-c]pyridin-3-yl)-acetic Acid]
EC50 (human GPR40 receptor): 0.006 µM
IC50 [1]: > 50 µM
solubility at 24 h (Aqueous solubility): 47 µg/mL (≈ 91.3 µM)
IC50 [2]: 35 µM

Cc1cc(OCCC(C)(C)O)cc(C)c1-c1ccc(F)c2c1CC[C@H]2Oc1ccc2c(c1)OC[C@H]2CC(=O)O [Example 16 in WO 2013/144098, reference compound]
solubility at 24 h (Aqueous solubility): < 1 µg/mL
IC50 [2]: 5 µM

Cc1cc(-c2nnn(C)n2)cc(C)c1-c1ccc(F)c2c1CC[C@H]2Oc1ccc2c(c1)OC[C@H]2CC(=O)O [Example 138 in WO 2013/144098, reference compound]
solubility at 24 h (Aqueous solubility): < 1 µg/mL
